From the OPERA property sets (Mansouri et al. 2018) come the findings set out here.

`CCC=CCCO`: the boiling point turned out to be 156 °C.
Regarding `O=C(CI)c1ccccc1`, the melting point was 34.4 °C.
`CCOC(=O)C(=O)CC(C)=O`: the boiling point came out at 214 °C and the melting point was 18 °C.
Turning to `C1=CCC2CC=CC2C1` (configuration not stated), the ready biodegradability result was “not readily biodegradable”.
`CN(C(=O)N(C)c1ccccc1)c1ccccc1` displayed a boiling point of 350 °C and a melting point of 122 °C.
For `CCC(C)CC(C)CC` (configuration not stated), the boiling point was 136 °C.
For the compound `Clc1c2ccccc2nc2ccccc12`, the melting point was 121 °C.
For `CC(C)(C)c1cc(-c2ccccc2)cc(C(C)(C)C)c1O`, the ready biodegradability result was “not readily biodegradable”.
Compound `ClCc1ccc(CCl)cc1` returned a melting point of 100 °C.
For `CCCCC(CC)COP(=O)(O)CC(CC)CCCC` (configuration not stated), the ready biodegradability entry is recorded as “not readily biodegradable”.
On to `Oc1ccc(Oc2ccccc2)cc1`, for which the melting point was found to be 84 °C.
On to `CCCC#CCCCCCC`, for which the boiling point worked out at 198 °C and the melting point was -74.7 °C.
`C[C@]12C[C@H]3S[C@H]3C[C@@H]1CC[C@@H]1[C@@H]2CC[C@]2(C)[C@@H](O)CC[C@@H]12` registered a melting point of 127 °C.
The same measure, in the same setting: the same measure for `O=S(=O)(O)CS(=O)(=O)O`: 98 °C.
Turning to `Cc1cc(Cl)c(O)c(Cl)c1`, the boiling point stood at 231 °C and the melting point came out at 39 °C.
With `CCCCCCCCCCCCCCCCCC(=O)Nc1ccc(O)cc1`, the melting point was found to be 134 °C.
`Cc1ccc(S)c(S)c1` registered a melting point of 29 °C.
The compound `CCC(=O)OC(C)C` yielded a boiling point of 110 °C and a log10 vapour pressure (mmHg) of 1.35.
`O=C1C=CC(=O)N1` registered a melting point of 94 °C.
Compound `N#CC(=O)c1ccccc1` registered a boiling point of 206 °C and a melting point of 32.5 °C.
Compound `CCCCCC(=O)CC` yielded a boiling point of 168 °C and a log10 vapour pressure (mmHg) of 0.301.
With `CCCCCCCCCCCCCCCl`, the boiling point was determined as 292 °C, the log10 vapour pressure (mmHg) was -3.14 and the melting point was 4.9 °C.
Take `C#CCCC(C)=O`: the boiling point is 149 °C.
`CCC(C)(CC)CC(C)C` displayed a boiling point of 161 °C.
As to `CN(C(=O)CN(CCO)CC(=O)N(C)C(C)(C)Cc1ccccc1)C(C)(C)Cc1ccccc1`, the melting point was 104 °C.
As to `CN(C)CCN(Cc1cccs1)c1ccccn1`, the log10 Koc (L/kg) came out at 2.87.
On to `OC[C@H]1O[C@@H](n2cnc3cncnc32)[C@H](O)[C@@H]1O`, for which the melting point is 181 °C.
In the case of `CCCCOC(=O)CCCC`, the boiling point stood at 186 °C and the melting point was -92.8 °C.
Regarding `O=C=Nc1ccccc1`, the boiling point was 163 °C and the log10 vapour pressure (mmHg) is 0.41.
Turning to `Cc1cc(O)ccc1[N+](=O)[O-]`, the log10 Henry constant (atm·m³/mol) was -7.79, the melting point was determined as 128 °C and the ready biodegradability result is given as “not readily biodegradable”.
In the case of `Cc1cc(N)c2ncccc2c1`, the melting point worked out at 73 °C.
The same measure, in the same setting: as for `CC(C)(C)c1cc(C(=O)O)cc(C(C)(C)C)c1O`, the figure is 208 °C; as for `CCC(C)(C)c1cc(O)c(C(C)(C)CC)cc1O`, 180 °C.
In the case of `CCOC(=O)C(OCC)OCC`, the boiling point was 199 °C.
Consider `CC(=O)OC1CCCCC1`, for which the boiling point turned out to be 173 °C, the log10 vapour pressure (mmHg) came out at 1.03 and the melting point is -65 °C.
In the case of `CCCCOS(=O)(=O)OCCCC`, the log10 vapour pressure (mmHg) was -1.93.
With `Cc1c(C)c([N+](=O)[O-])c(C)c(C)c1[N+](=O)[O-]`, the melting point came to 212 °C.
Take `Oc1cc(Cl)ccc1Cl`: the boiling point is 211 °C, the log10 vapour pressure (mmHg) was -1.25, the melting point came out at 59 °C and the ready biodegradability result is recorded as “not readily biodegradable”.
`CCCCOC(C)C` came in with a boiling point of 109 °C.
`O=C(NC(=O)c1c(F)cccc1F)Nc1ccc(OC(F)(F)C(F)OC(F)(F)F)c(Cl)c1` (configuration not stated) displayed a melting point of 178 °C.
With `Cc1ccccc1Oc1cccnn1`, the melting point came to 78 °C.
Still for that read-out and setting: the same measure for `CCCCCCCCCCCC(=O)OC(=O)CCCCCCCCCCC`: 41.8 °C.
Regarding `CC1=CC(=O)CCC1`, the boiling point worked out at 201 °C and the melting point is -21 °C.
Take `CCOC(=O)c1ccccc1Br`: the boiling point amounted to 254 °C.
The same measure, in the same setting: the same measure for `CCC(CC)C(=O)OC`: 137 °C.
Consider `CC(C)OC(=O)C(O)(c1ccc(Cl)cc1)c1ccc(Cl)cc1`, for which the log10 vapour pressure (mmHg) is -6.74 and the melting point came out at 73 °C.
On to `CC=C(C(=O)OC)C(=O)OC`, for which the ready biodegradability entry is “readily biodegradable”.
As to `CC(=O)CC(=O)OCCCl`, the boiling point is 198 °C.
Consider `O=C(O)c1cccc2ccccc12`, for which the ready biodegradability result is “not readily biodegradable”.
Still for that read-out and setting: as for `Cc1cc2nc3c(=O)[nH]c(=O)nc-3n(C[C@H](O)[C@H](O)[C@H](O)CO)c2cc1C`, the entry is “not readily biodegradable”.
For `C=C/C=C\CC1=C(C)[C@@H](OC(=O)[C@@H]2[C@@H](/C=C(\C)C(=O)OC)C2(C)C)CC1=O`, the log10 vapour pressure (mmHg) was -6.4.
On to `C1CCN(CCN2CCCCC2)CC1`, for which the boiling point was found to be 265 °C and the melting point was -0.5 °C.
The compound `CC=CCC(C)=O` showed a boiling point of 127 °C.
Same read-out and setting: the same measure for `Cc1cc(C)cc(CO)c1`: 220 °C.
Take `O=[N+]([O-])c1cc(F)c(F)cc1F`: the boiling point was determined as 194 °C and the melting point is -11 °C.
On to `Oc1cc(Cl)c(Cl)cc1Cl`, for which the boiling point was determined as 247 °C, the log10 Koc (L/kg) came to 3.36, the log10 vapour pressure (mmHg) is -2.12 and the melting point stood at 69 °C. For the same compound, the ready biodegradability result is “not readily biodegradable”.
